Experimental data from patent US6699825B2, “Acidic hard-surface antimicrobial cleaner” (S.C. Johnson & Son, Inc., priority 2001, dated 2004).

system: not given; assay: not given; conditions: in water; cited from earlier work

**Q.** For `CCOCCOCCO` [Carbitol, Diethylene Glycol Ethyl Ether], which miscibility in water is on record?
**A.** completely miscible

**Q.** With `COC(C)COC(C)CO` (centres unmarked) [DPM, Dipropylene Glycol Methyl Ether] as the compound, how does the miscibility in water read?
**A.** completely miscible

**Q.** For `CC(C)O` [IPA, Iso-propanol], which miscibility in water is on record?
**A.** completely miscible

same assay, conditions: water, 20-25° C.; cited from earlier work

**Q.** With `OCc1ccccc1` [BA, Benzyl Alcohol] as the compound, how does the “Solubility in water at 20-25° C.” value read?
**A.** 3.8%

**Q.** For `CCOCCOCCO` [Carbitol, Diethylene Glycol Ethyl Ether], which “Solubility in water at 20-25° C.” value is on record?
**A.** Infinite

**Q.** Which “Solubility in water at 20-25° C.” value does the source give for `COC(C)COC(C)CO` (centres unmarked) [DPM, Dipropylene Glycol Methyl Ether] here?
**A.** Infinite

**Q.** With `CCCCCOCCO` [EGPE, Ethylene Glycol n-Pentyl Ether] as the compound, how does the “Solubility in water at 20-25° C.” value read?
**A.** 3.4%

**Q.** For `OCCOc1ccccc1` [Eph, Ethylene Glycol Phenyl Ether], which “Solubility in water at 20-25° C.” value is on record?
**A.** 2.3%

**Q.** For `CC(C)O` [IPA, Iso-propanol], which “Solubility in water at 20-25° C.” value is on record?
**A.** Infinite

system: Staphylococcus aureus; assay: EPA Non-Food Contact Sanitizer Test DIS/TSS-10, glass slide, 5% fetal bovine serum; assay type: cell-based; conditions: S. aureus; dilute aqueous acidic solution; 1-minute contact
Protocol: (§1) Low-residue hard surface cleaner formulations of the present invention were evaluated for sanitizing efficacy under the United States Environmental Protection Agency's Non-Food Contact Sanitizer Test, DIS/TSS-10 (Jan. 7, 1982). As noted in specific examples, a 30 second or 1 minute contact time using a glass slide test surface was used. As these formulas are to be used as one-step antimicrobial cleaners, fetal bovine serum was added to the innoculum at a concentration of 5.0 percent by weight to simulate an organic soil load such as one would expect to find on a typical non-food contact surface prior to cleaning.
(§2) Efficacy of the test solutions was evaluated versus Staphylococcus aureus (S. aureus), Klebsiella pneumoniae (K. pneumoniae), and Salmonella choleraesius (S. choleraesius). As a control, parallel tests were conducted using a 0.01 percent solution of Triton X-100 (isooctylphenoxyl-polyethoxyethanol with 9-10 moles of oxyethylene) in an identical manner as the test solutions. The results for the test solutions were compared to the control and are reported as “Log Kill” of the test organism versus the control counts in Table 2. A “Log Kill” of 5 means that 99.999 percent of the organism has been killed.

**Q.** Which “antimicrobial synergy with low levels of organocarboxylic acids” value (shortened to “antimicrobial synergy with low levels”) does the source give for `OCc1ccccc1` [BA, Benzyl Alcohol] here?
**A.** enhanced biocidal efficacy

**Q.** For `CCOCCOCCO` [Carbitol, Diethylene Glycol Ethyl Ether], which “antimicrobial synergy with low levels” value is on record?
**A.** no significant antimicrobial synergy

**Q.** Which “antimicrobial synergy with low levels” value does the source give for `CCCCCCOCCOCCO` [DEGHE, Diethylene Glycol n-Hexyl Ether] here?
**A.** enhanced biocidal efficacy

**Q.** For `COC(C)COC(C)CO` (centres unmarked) [DPM, Dipropylene Glycol Methyl Ether], which “antimicrobial synergy with low levels” value is on record?
**A.** no significant antimicrobial synergy

**Q.** Which “antimicrobial synergy with low levels” value does the source give for `CCCCCOCCO` [EGPE, Ethylene Glycol n-Pentyl Ether] here?
**A.** enhanced biocidal efficacy

**Q.** For `OCCOc1ccccc1` [Eph, Ethylene Glycol Phenyl Ether], which “antimicrobial synergy with low levels” value is on record?
**A.** enhanced biocidal efficacy

**Q.** With `CC(C)O` [IPA, Iso-propanol] as the compound, how does the “antimicrobial synergy with low levels” value read?
**A.** no significant antimicrobial synergy

system: Klebsiella pneumoniae; assay: as above; assay type: cell-based; conditions: K. pneumoniae; dilute aqueous acidic solution; 1-minute contact
Protocol: as §1, §2

**Q.** With `OCc1ccccc1` [BA, Benzyl Alcohol] as the compound, how does the “antimicrobial synergy with low levels” value read?
**A.** enhanced biocidal efficacy

**Q.** Which “antimicrobial synergy with low levels” value does the source give for `CCOCCOCCO` [Carbitol, Diethylene Glycol Ethyl Ether] here?
**A.** no significant antimicrobial synergy

**Q.** With `CCCCCCOCCOCCO` [DEGHE, Diethylene Glycol n-Hexyl Ether] as the compound, how does the “antimicrobial synergy with low levels” value read?
**A.** enhanced biocidal efficacy

**Q.** Which “antimicrobial synergy with low levels” value does the source give for `COC(C)COC(C)CO` (centres unmarked) [DPM, Dipropylene Glycol Methyl Ether] here?
**A.** no significant antimicrobial synergy

**Q.** Which “antimicrobial synergy with low levels” value does the source give for `CCCCCOCCO` [EGPE, Ethylene Glycol n-Pentyl Ether] here?
**A.** enhanced biocidal efficacy

**Q.** With `OCCOc1ccccc1` [Eph, Ethylene Glycol Phenyl Ether] as the compound, how does the “antimicrobial synergy with low levels” value read?
**A.** enhanced biocidal efficacy

**Q.** Which “antimicrobial synergy with low levels” value does the source give for `CC(C)O` [IPA, Iso-propanol] here?
**A.** no significant antimicrobial synergy
